Data from patent publication US4122199A, “Amides of pyrrolidinoethylamine which can be used in treatment of coughs” (Pierre Fabre S.A., priority 1976, dated 1978).
Counter-ions that a name gives are not always drawn. Like-named read-outs stand apart in the source and are kept apart here.

Tests used:
guinea pig = assay: Takagi's technique: coughing by mechanical stimulation of the tracheal bifurcation in the unanesthetized guinea pig; format: in vivo; details: 50 mg/kg i.p.; for Cough rating, m = average of the ratings, after treatment: 1 heavy, 0.5 light, 0 no cough
Experimental: A second method using a different type of stimulation of coughs made it possible to note, as compared with codeine, the antitussive properties of the main components claimed.
The technique employed is derived from Takagi's technique, and consists in causing coughing by mechanical stimulation of the tracheal bifurcation in the unanesthetized guinea pig.
The cough is evaluated by the research worker in accordance with the following scale:
The products are administered intraperitoneally and the stimulation is effected 10 and 20 minutes after the injection.

[1] = Solubility characteristics; format: physicochemical; details: for Solubility in water / solubility: water
in vivo = details: mouse, in vivo, mice, isotonic aqueous solution
Experimental: (§1) It is determined on mice, the products being administered orally, intraperitoneally, and intraveneously in isotonic aqueous solution.

mice [2] = assay: in vivo; details: isotonic aqueous solution
Experimental: as §1

guinea pigs = assay: Citric acid aerosol method on guinea pigs (antitussive); format: in vivo; details: for % decrease in no. coughs in 15 mins.: orally, citric acid aerosol; for change in vivo at 50 mg/kg: Cavia porcellus, ip, 0.25 h, 50 mg/kg i.p., 20 minutes before 20% citric acid aerosol, read-out: % reduction of no. of coughs in 15 minutes
Experimental: The animals were subjected to a 20% citric acid aerosol for 15 minutes.
The coughs were recorded by a microphone.
The products were administered intraperitoneally 20 minutes before the exposure to the aerosol.
Some derivatives were also tested orally.

Pseudomonas aeruginosa = assay: Fungistatic/bacteriostatic effect, Pseudomonas aeruginosa; format: cell-based; details: compared with S. aureus and E. coli
Experimental: (§2) The determination of fungistatic bacteriostatic properties was carried out by two methods on four strains:
(§3) Halved serial dilutions are formed in a hemoylsis tube, in each case to a volume of 1 ml; each dilution is inoculated with 10^6 micro-organisms per ml. After 48 hours in the oven, the minimum inhibitory concentration is determined. A subculture of the negative tubes (bacteriostatic), makes it possible to note the bactericidal concentration.

Candida albicans = assay: Fungistatic/bacteriostatic effect, Candida albicans; format: cell-based; details: compared with S. aureus and E. coli
Experimental: as §2, §3

micro-organisms = assay: Bactericidal action (subculture of the negative tubes); format: cell-based; details: at concentrations of 1 g percent
Experimental: as §2, §3

[3] = Local anesthesia activity; details: compared with procaine
mice [4] = assay: Antalgic properties: decrease in contortions caused by phenyl benzoquinone, in mice; format: in vivo; details: 150 mg/kg by mouth
Experimental: The antalgic properties with respect to a decrease in contortions caused by phenyl benzoquinone, as measured in mice, are very clear from the 150 mg/kg by mouth in the case of F 1534 (40% decrease), F 1539 (75% decrease), and F 1541 (60% decrease).

[5] = iv, intravenous, read-out: DL 50 intravenous
[6] = ip, intraperitoneal, read-out: DL 50 intraperitoneal

Structure (SMILES): COc1ccc2c3c1O[C@H]1[C@@H](O)C=C[C@H]4[C@@H](C2)N(C)CC[C@@]341 [CODEINE, codeine, reference compound]
- % variation of cough rating (guinea pig; t + 10 mn): -22%
- Cough rating, m = average of the ratings, after treatment (guinea pig; t + 10 mn): 0,75
- % variation of cough rating (guinea pig; t + 20 mn): -30%
- Cough rating, m = average of the ratings, after treatment (guinea pig; t + 20 mn): 0,67

Structure (SMILES): Cc1cc(Br)cc(C(=O)NCCN2CCCC2)c1O [Example 9, N(2'-pyrrolidino-ethyl)-5-bromo-3-methyl-salicylamide hydrochloride]
- Solubility in ethanol ([1]; % soluble): 3%
- Solubility in ether ([1]; in words): insoluble
- Solubility in propylene glycol ([1]; % soluble): 7%
- Solubility in water ([1]; in words): very soluble

Structure (SMILES): O=C(NCCN1CCCC1)c1cc2ccccc2oc1=O [Example 14, N(2'-pyrrolidino-ethyl)-3-coumarin-carboxamide hydrochloride]
- Solubility in ethanol ([1]; % soluble): 4%
- Solubility in propylene glycol ([1]; % soluble): 7%
- Solubility in water ([1]; in words): very soluble

Structure (SMILES): O=C(NCCN1CCCC1)C(c1ccccc1)c1ccccc1 [F 1459, N(2'-pyrrolidino-ethyl)-α,α-diphenyl acetamide hydrochloride]
- Solubility in ethanol ([1]; % soluble): 5%
- Solubility in propylene glycol ([1]; % soluble): 3%
- solubility ([1]; % soluble): 250 mg/mL
- LD50 (in vivo; [5]): 48 mg/kg
- DL 50 oral (mice [2]; hydrochloride): 562 mg/kg
- % decrease in no. coughs in 15 mins. (guinea pigs; 50 mg/kg, hydrochloride): -31
- % variation of cough rating (guinea pig; t + 10 mn): -32%
- Cough rating, m = average of the ratings, after treatment (guinea pig; t + 10 mn): 0,67
- % variation of cough rating (guinea pig; t + 20 mn): -66%
- Cough rating, m = average of the ratings, after treatment (guinea pig; t + 20 mn): 0,33
- effect on Pseudomonas aeruginosa (Pseudomonas aeruginosa): more moderate but significant effect
- effect on Candida albicans (Candida albicans): more moderate but significant effect
- bactericidal action (micro-organisms): real and significant

Structure (SMILES): CCOC(C(=O)NCCN1CCCC1)(c1ccccc1)c1ccccc1 [F 1460, N(2-pyrrolidino-ethyl)-α,α-diphenyl-α-ethoxy-acetamide hydrochloride]
- Solubility in ethanol ([1]; % soluble): 4%
- Solubility in ether ([1]; in words): insoluble
- solubility ([1]; % soluble): 10 mg/mL
- LD50 (in vivo; [6]): 178 mg/kg
- LD50 (in vivo; [5]): 40 mg/kg
- LD50 (in vivo; po, oral, read-out: DL 50 oral): 750 mg/kg

Structure (SMILES): O=C(NCCN1CCCC1)N1c2ccccc2Sc2ccccc21 [F 1461, N(2'-pyrrolidino-ethyl)-10-phenothiazine carboxamide hydrochloride]
- Solubility in N-methyl pyrrolidone ([1]; N-methyl pyrrolidone, % soluble): 10%
- Solubility in ethanol ([1]; % soluble): 10%
- Solubility in propylene glycol ([1]; % soluble): 10%
- solubility ([1]; % soluble): 100 mg/mL
- LD50 (in vivo; [6]): 178 mg/kg
- LD50 (in vivo; [5]): 26 mg/kg
- LD50 (in vivo; po, oral, read-out: DL 50 oral): 560 mg/kg
- % decrease in no. coughs in 15 mins. (guinea pigs; 50 mg/kg): -12
- % decrease in no. coughs in 15 mins. (guinea pigs; 100 mg/kg): -25
- % variation of cough rating (guinea pig; t + 10 mn): -35%
- Cough rating, m = average of the ratings, after treatment (guinea pig; t + 10 mn): 0,54
- % variation of cough rating (guinea pig; t + 20 mn): -55%
- Cough rating, m = average of the ratings, after treatment (guinea pig; t + 20 mn): 0,37

Structure (SMILES): C=CCOc1c(C)cc(Br)cc1C(=O)NCCN1CCCC1 [F 1479, N(2'-pyrrolidino-ethyl)-2-allyloxy-5-bromo-3-methyl benzamide hydrochloride]
- Solubility in water ([1]; in words): very soluble

Structure (SMILES): O=C(NCCN1CCCC1)C1c2ccccc2-c2ccccc21 [F 1532, N(2'-pyrrolidino-ethyl)-9-fluoroene-carboxamide hydrochloride]
- Solubility in ethanol ([1]; in words): very soluble
- Solubility in propylene glycol ([1]; in words): very soluble
- Solubility in water ([1]; in words): very soluble
- LD50 (in vivo; [6]): 75 mg/kg
- LD50 (in vivo; po, oral, read-out: DL 50 oral): 178 mg/kg
- effect on Pseudomonas aeruginosa (Pseudomonas aeruginosa): more moderate but significant effect
- effect on Candida albicans (Candida albicans): more moderate but significant effect
- bactericidal action (micro-organisms): real and significant

Structure (SMILES): O=C(NCCN1CCCC1)C(c1ccccc1)N1CCCCC1 (centres unmarked) [F 1533, N(2'-pyrrolidino-ethyl)phenyl piperidino-acetamide]
- Solubility in ethanol ([1]; in words): Very soluble
- Solubility in water ([1]; in words): insoluble
- LD50 (in vivo; [6]): 178 mg/kg
- LD50 (in vivo; po, oral, read-out: DL 50 oral): 750 mg/kg
- change in vivo at 50 mg/kg (guinea pigs): -7%
- effect on Pseudomonas aeruginosa (Pseudomonas aeruginosa): more moderate but significant effect
- effect on Candida albicans (Candida albicans): more moderate but significant effect
- bactericidal action (micro-organisms): real and significant

Structure (SMILES): O=C(NCCN1CCCC1)C1c2ccccc2Oc2ccccc21 [F 1534, N(2'-pyrrolidino-ethyl)-9-xanthene carboxamide hydrochloride]
- Solubility in ethanol ([1]; % soluble): 10%
- Solubility in propylene glycol ([1]; % soluble): 10%
- Solubility in water ([1]; in words): very soluble
- LD50 (in vivo; [6]): 178 mg/kg
- LD50 (in vivo; po, oral, read-out: DL 50 oral): 750 mg/kg
- effect on Pseudomonas aeruginosa (Pseudomonas aeruginosa): more moderate but significant effect
- effect on Candida albicans (Candida albicans): more moderate but significant effect
- bactericidal action (micro-organisms): real and significant
- local anesthesia activity [3]: high order of local anesthesia activity comparable to that of procaine
- decrease in contortions caused by phenyl benzoquinone (mice [4]): 40%

Structure (SMILES): O=C(NCCN1CCCC1)C(O)(c1ccccc1)c1ccccc1 [F 1535, N(2'-pyrrolidino-ethyl)-α,α-diphenyl-hydroxy-acetamide hydrochloride]
- Solubility in water ([1]; in words): very soluble
- LD50 (in vivo; [6]): 237 mg/kg
- LD50 (in vivo; oral, read-out: DL 50 oral): 562 mg/kg
- local anesthesia activity [3]: high order of local anesthesia activity comparable to that of procaine

Structure (SMILES): O=C(O)c1ccccc1C(=O)NCCN1CCCC1 [F 1537, N(2'-pyrrolidino-ethyl)-2-carboxy-benzamide]
- Solubility in ethanol ([1]; in words): very soluble
- Solubility in propylene glycol ([1]; in words): very soluble
- Solubility in water ([1]; in words): very soluble
- LD50 (in vivo; [6]): 500 mg/kg
- LD50 (in vivo; po, oral, read-out: DL 50 oral): 1000 mg/kg
- change in vivo at 50 mg/kg (guinea pigs): -8%

Structure (SMILES): COc1cc(C(=O)NCCN2CCCC2)cc(OC)c1OC [F 1538, N(2'-pyrrolidino-ethyl)-3-4-5-trimethoxy-benzamide hydrochloride]
- Solubility in ethanol ([1]; in words): soluble
- Solubility in propylene glycol ([1]; in words): soluble
- Solubility in water ([1]; in words): soluble
- LD50 (in vivo; [6]): 300 mg/kg
- LD50 (in vivo; po, oral, read-out: DL 50 oral): 562 mg/kg
- change in vivo at 50 mg/kg (guinea pigs): -1%

Structure (SMILES): O=C(COc1ccc(Cl)cc1)NCCN1CCCC1 [F 1539, N(2'-pyrrolidino-ethyl)-4-chloro-phenoxy-acetamide hydrochloride]
- Solubility in ethanol ([1]; in words): soluble
- Solubility in propylene glycol ([1]; in words): soluble
- Solubility in water ([1]; in words): soluble
- LD50 (in vivo; [6]): 178 mg/kg
- LD50 (in vivo; po, oral, read-out: DL 50 oral): 1000 mg/kg
- decrease in contortions caused by phenyl benzoquinone (mice [4]): 75%

Structure (SMILES): CC(C)(Oc1ccccc1)C(=O)NCCN1CCCC1 [F 1540, N(2'-pyrrolidino-ethyl)phenoxy-isobutyramide hydrochloride]
- Solubility in ethanol ([1]; in words): soluble
- Solubility in propylene glycol ([1]; in words): soluble
- Solubility in water ([1]; in words): soluble
- LD50 (in vivo; [6]): 237 mg/kg
- LD50 (in vivo; po, oral, read-out: DL 50 oral): 1000 mg/kg

Structure (SMILES): CC(C)(Oc1ccc(Cl)cc1)C(=O)NCCN1CCCC1 [F 1541, N(2'-pyrrolidino-ethyl)-4-chloro-phenoxy-isobutyramide hydrochloride]
- Solubility in ethanol ([1]; in words): Soluble
- Solubility in propylene glycol ([1]; in words): Soluble
- Solubility in water ([1]; in words): Soluble
- LD50 (in vivo; [6]): 178 mg/kg
- LD50 (in vivo; po, oral, read-out: DL 50 oral): 562 mg/kg
- local anesthesia activity [3]: high order of local anesthesia activity comparable to that of procaine
- decrease in contortions caused by phenyl benzoquinone (mice [4]): 60%

Structure (SMILES): O=C(C=Cc1ccccc1)NCCN1CCCC1 [F 1542, N(2'-pyrrolidino-ethyl)cinnamide, HCl]
- Solubility in ethanol ([1]; in words): very soluble
- Solubility in propylene glycol ([1]; in words): very soluble
- Solubility in water ([1]; in words): very soluble
- LD50 (in vivo; [6]): 178 mg/kg
- LD50 (in vivo; po, oral, read-out: DL 50 oral): 1000 mg/kg
- change in vivo at 50 mg/kg (guinea pigs): -19.5%

Structure (SMILES): O=C(NCCN1CCCC1)C(c1ccccc1)c1ccccc1 [F 1629, N(2-pyrrolidino-ethyl)-α,α-diphenyl-acetamide pamoate]
- Solubility in alcohol ([1]; in words): Insoluble
- Solubility in dimethyl acetamide ([1]; in words): Soluble
- Solubility in methyl pyrrolidone ([1]; in words): Soluble
- Solubility in water ([1]; in words): Insoluble
- DL 50 intraperitoneal (mice [2]): 750 mg/kg
- DL 50 oral (mice [2]): 2000 mg/kg
- % decrease in no. coughs in 15 mins. (guinea pigs; 50 mg/kg): -30
- % decrease in no. coughs in 15 mins. (guinea pigs; 100 mg/kg): -50

Structure (SMILES): O=C(NCCN1CCCC1)C(c1ccccc1)c1ccccc1 [F 1630, N(2-pyrrolidino-ethyl)-α,α-diphenyl-acetamide palmitate]
- Solubility in alcohol ([1]; in words): Poorly soluble
- Solubility in dimethyl acetamide ([1]; in words): Poorly soluble
- Solubility in methyl pyrrolidone ([1]; in words): Poorly soluble
- Solubility in propylene glycol ([1]; in words): Poorly soluble
- Solubility in water ([1]; in words): Insoluble
- DL 50 intraperitoneal (mice [2]): 500 mg/kg
- DL 50 oral (mice [2]): 1500 mg/kg
